Test: Biodistribution of the nano-emulsion of Example 1.1 (radioactivity and fluorescence per organ)
Type: in vivo
Procedure: In the following examples, the radioactivity was counted with the TRiCarb Counter (Ref: Packard, Liquid Scintillation Analyzers; Models 2200CA).
Fluobeam 700 (Fluoptics) is the apparatus with which the whole of the organs from the biodistribution were analyzed in fluorescence as well as the one with which the biodistribution kinetics of the nano-emulsions were established in vivo. This imaging system allows viewing of the fluorescence in spectral bands from 700 to 850 nm for a 650 nm excitation. The apparatus consists of an electric case containing the laser of class 3B, its power supply and an optical head containing the CCD camera.
The nano-emulsions of Example 1 were injected into FVB female and male mice. As a comparison, a mixture of three tracers ([3H]CHE, [14C]CO and DiD) (not formulated as a nano-emulsion) was injected in order to observe the distribution of the tracers in the absence of droplets being used as a distribution carrier.
Tables 6 to 14 provide the biodistribution results of each tracer ([3H]CHE, [14C]CO and DiD) expressed as a percentage of the dose injected per gram of tissue (or [3H]CHE and [14C]CO) or as fluorescence intensity (for DiD) depending on the organ of the mouse, 15 minutes (Table 6), 2 hours (Table 7), 4 hours (Table 8), 6 hours (Table 9), 16 hours (Table 10), 24 hours (Table 11), 72 hours (Table 12), 120 hours (Table 13) and 168 hours (Table 14), after injection into an FVB female mouse of the nano-emulsion of Example 1.1. (nano-emulsion according to the invention comprising the three tracers ([3H]CHE, [14C]CO and DiD).

[1] = 15 min after injection of nano-emulsion of Example 1.1, FVB female mouse
[2] = 2 h after injection of nano-emulsion of Example 1.1, FVB female mouse
[3] = 4 h after injection of nano-emulsion of Example 1.1, FVB female mouse
[4] = 16 h (Table 9 head) after injection of nano-emulsion of Example 1.1, FVB female mouse
[5] = 24 h (Table 10 head) after injection of nano-emulsion of Example 1.1, FVB female mouse
[6] = 48 h (Table 11 head) after injection of nano-emulsion of Example 1.1, FVB female mouse
[7] = 72 h after injection of nano-emulsion of Example 1.1, FVB female mouse
[8] = 120 h after injection of nano-emulsion of Example 1.1, FVB female mouse
[9] = 168 h after injection of nano-emulsion of Example 1.1, FVB female mouse

For `CCCCCCCCCCCCCCCCO[C@H]1CC[C@@]2(C)C(=CC[C@H]3[C@@H]4CC[C@H]([C@H](C)CCCC(C)C)[C@@]4(C)CC[C@@H]32)C1` [[3H]CHE, cholesteryl hexadecylether], the “biodistribution, Adrenal glands (MEAN)” value [1] was 10.60 % of injected dose per gram of, the “biodistribution, Brain (MEAN)” value [1] was 0.476 % of injected dose per gram of and the “biodistribution, Fat (MEAN)” value [1] was 1.10 % of injected dose per gram of. For the same compound, the “biodistribution, Heart (MEAN)” value [1] was 8.303 % of injected dose per gram of, the “biodistribution, Intestine (MEAN)” value [1] was 1.71 % of injected dose per gram of and the “biodistribution, Kidney (MEAN)” value [1] was 4.09 % of injected dose per gram of. For the same compound, the “biodistribution, Liver (MEAN)” value [1] was 8.26 % of injected dose per gram of, the “biodistribution, Lung (MEAN)” value [1] was 3.91 % of injected dose per gram of and the “biodistribution, Muscle (MEAN)” value [1] was 0.675 % of injected dose per gram of. For the same compound, the “biodistribution, Ovary (MEAN)” value [1] was 5.38 % of injected dose per gram of, the “biodistribution, Pancreas (MEAN)” value [1] was 1.233 % of injected dose per gram of and the “biodistribution, Salivary glands (MEAN)” value [1] was 1.157 % of injected dose per gram of. For the same compound, the “biodistribution, Spleen (MEAN)” value [1] was 3.63 % of injected dose per gram of, the “biodistribution, Uterus (MEAN)” value [1] was 0.90 % of injected dose per gram of and the “biodistribution, Adrenal glands (MEAN)” value [2] was 21.12 % of injected dose per gram of. For the same compound, the “biodistribution, Brain (MEAN)” value [2] was 0.26 % of injected dose per gram of, the “biodistribution, Fat (MEAN)” value [2] was 0.76 % of injected dose per gram of and the “biodistribution, Heart (MEAN)” value [2] was 4.64 % of injected dose per gram of. The “biodistribution, Intestine (MEAN)” value [2] was 2.44 % of injected dose per gram of, the “biodistribution, Kidneys (MEAN)” value [2] was 3.83 % of injected dose per gram of and the “biodistribution, Liver (MEAN)” value [2] was 31.09 % of injected dose per gram of. For the same compound, the “biodistribution, Lung (MEAN)” value [2] was 4.44 % of injected dose per gram of, the “biodistribution, Muscle (MEAN)” value [2] was 0.45 % of injected dose per gram of and the “biodistribution, Ovary (MEAN)” value [2] was 29.28 % of injected dose per gram of. For the same compound, the “biodistribution, Pancreas (MEAN)” value [2] was 1.43 % of injected dose per gram of, the “biodistribution, Salivary glands (MEAN)” value [2] was 1.42 % of injected dose per gram of and the “biodistribution, Spleen (MEAN)” value [2] was 5.10 % of injected dose per gram of. The “biodistribution, Uterus (MEAN)” value [2] was 2.23 % of injected dose per gram of, the “biodistribution, Adrenal glands (MEAN)” value [3] was 28.13 % of injected dose per gram of and the “biodistribution, Brain (MEAN)” value [3] was 0.19 % of injected dose per gram of. The “biodistribution, Fat (MEAN)” value [3] was 1.40 % of injected dose per gram of, the “biodistribution, Heart (MEAN)” value [3] was 4.94 % of injected dose per gram of and the “biodistribution, Intestine (MEAN)” value [3] was 2.46 % of injected dose per gram of. The “biodistribution, Kidney (MEAN)” value [3] was 2.51 % of injected dose per gram of, the “biodistribution, Liver (MEAN)” value [3] was 37.43 % of injected dose per gram of and the “biodistribution, Lungs (MEAN)” value [3] was 4.02 % of injected dose per gram of. For the same compound, the “biodistribution, Muscle (MEAN)” value [3] was 0.41 % of injected dose per gram of, the “biodistribution, Ovary (MEAN)” value [3] was 39.41 % of injected dose per gram of and the “biodistribution, Pancreas (MEAN)” value [3] was 1.01 % of injected dose per gram of. The “biodistribution, Salivary glands (MEAN)” value [3] was 1.09 % of injected dose per gram of, the “biodistribution, Spleen (MEAN)” value [3] was 5.00 % of injected dose per gram of and the “biodistribution, Uterus (MEAN)” value [3] was 1.69 % of injected dose per gram of. For the same compound, the “biodistribution, Adrenal glands (MEAN)” value [4] was 43.16 % of injected dose per gram of, the “biodistribution, Brain (MEAN)” value [4] was 0.13 % of injected dose per gram of and the “biodistribution, Fat (MEAN)” value [4] was 1.36 % of injected dose per gram of. The “biodistribution, Heart (MEAN)” value [4] was 3.49 % of injected dose per gram of, the “biodistribution, Intestine (MEAN)” value [4] was 4.87 % of injected dose per gram of and the “biodistribution, Kidney (MEAN)” value [4] was 2.06 % of injected dose per gram of. For the same compound, the “biodistribution, Liver (MEAN)” value [4] was 47.67 % of injected dose per gram of, the “biodistribution, Lungs (MEAN)” value [4] was 4.63 % of injected dose per gram of and the “biodistribution, Muscle (MEAN)” value [4] was 0.76 % of injected dose per gram of. The “biodistribution, Ovary (MEAN)” value [4] was 52.26 % of injected dose per gram of, the “biodistribution, Pancreas (MEAN)” value [4] was 1.17 % of injected dose per gram of and the “biodistribution, Salivary glands (MEAN)” value [4] was 1.27 % of injected dose per gram of. For the same compound, the “biodistribution, Spleen (MEAN)” value [4] was 7.48 % of injected dose per gram of, the “biodistribution, Uterus (MEAN)” value [4] was 3.91 % of injected dose per gram of and the “biodistribution, Adrenal glands (MEAN)” value [5] was 39.68 % of injected dose per gram of. For the same compound, the “biodistribution, Brain (MEAN)” value [5] was 0.09 % of injected dose per gram of, the “biodistribution, Fat (MEAN)” value [5] was 0.88 % of injected dose per gram of and the “biodistribution, Heart (MEAN)” value [5] was 3.53 % of injected dose per gram of. The “biodistribution, Intestine (MEAN)” value [5] was 2.78 % of injected dose per gram of, the “biodistribution, Kidney (MEAN)” value [5] was 1.50 % of injected dose per gram of and the “biodistribution, Liver (MEAN)” value [5] was 48.76 % of injected dose per gram of. The “biodistribution, Lung (MEAN)” value [5] was 3.21 % of injected dose per gram of, the “biodistribution, Muscle (MEAN)” value [5] was 0.46 % of injected dose per gram of and the “biodistribution, Ovary (MEAN)” value [5] was 38.06 % of injected dose per gram of. For the same compound, the “biodistribution, Pancreas (MEAN)” value [5] was 0.64 % of injected dose per gram of, the “biodistribution, Salivary glands (MEAN)” value [5] was 1.40 % of injected dose per gram of and the “biodistribution, Spleen (MEAN)” value [5] was 7.50 % of injected dose per gram of. For the same compound, the “biodistribution, Uterus (MEAN)” value [5] was 1.82 % of injected dose per gram of, the “biodistribution, Adrenal glands (MEAN)” value [6] was 42.26 % of injected dose per gram of and the “biodistribution, Brain (MEAN)” value [6] was 0.08 % of injected dose per gram of. The “biodistribution, Fat (MEAN)” value [6] was 1.05 % of injected dose per gram of, the “biodistribution, Heart (MEAN)” value [6] was 3.52 % of injected dose per gram of and the “biodistribution, Intestine (MEAN)” value [6] was 4.43 % of injected dose per gram of. For the same compound, the “biodistribution, Kidney (MEAN)” value [6] was 1.63 % of injected dose per gram of, the “biodistribution, Liver (MEAN)” value [6] was 58.43 % of injected dose per gram of and the “biodistribution, Lungs (MEAN)” value [6] was 3.91 % of injected dose per gram of. The “biodistribution, Muscle (MEAN)” value [6] was 0.36 % of injected dose per gram of, the “biodistribution, Ovary (MEAN)” value [6] was 36.42 % of injected dose per gram of and the “biodistribution, Pancreas (MEAN)” value [6] was 1.00 % of injected dose per gram of. The “biodistribution, Salivary glands (MEAN)” value [6] was 1.09 % of injected dose per gram of, the “biodistribution, Spleen (MEAN)” value [6] was 12.32 % of injected dose per gram of and the “biodistribution, Uterus (MEAN)” value [6] was 3.75 % of injected dose per gram of. For the same compound, the “biodistribution, Adrenal glands (MEAN)” value [7] was 36.92 % of injected dose per gram of, the “biodistribution, Brain (MEAN)” value [7] was 0.08 % of injected dose per gram of and the “biodistribution, Fat (MEAN)” value [7] was 0.85 % of injected dose per gram of. The “biodistribution, Heart (MEAN)” value [7] was 2.98 % of injected dose per gram of, the “biodistribution, Intestine (MEAN)” value [7] was 3.58 % of injected dose per gram of and the “biodistribution, Kidney (MEAN)” value [7] was 1.27 % of injected dose per gram of. The “biodistribution, Liver (MEAN)” value [7] was 39.73 % of injected dose per gram of, the “biodistribution, Lungs (MEAN)” value [7] was 2.95 % of injected dose per gram of and the “biodistribution, Muscle (MEAN)” value [7] was 0.22 % of injected dose per gram of. The “biodistribution, Ovary (MEAN)” value [7] was 25.11 % of injected dose per gram of, the “biodistribution, Pancreas (MEAN)” value [7] was 0.74 % of injected dose per gram of and the “biodistribution, Salivary glands (MEAN)” value [7] was 1.10 % of injected dose per gram of. For the same compound, the “biodistribution, Spleen (MEAN)” value [7] was 7.65 % of injected dose per gram of, the “biodistribution, Uterus (MEAN)” value [7] was 5.63 % of injected dose per gram of and the “biodistribution, Adrenal gland (MEAN)” value [8] was 41.92 % of injected dose per gram of. The “biodistribution, Brain (MEAN)” value [8] was 0.08 % of injected dose per gram of, the “biodistribution, Fat (MEAN)” value [8] was 0.68 % of injected dose per gram of and the “biodistribution, Heart (MEAN)” value [8] was 2.59 % of injected dose per gram of. The “biodistribution, Intestine (MEAN)” value [8] was 3.60 % of injected dose per gram of, the “biodistribution, Kidney (MEAN)” value [8] was 1.29 % of injected dose per gram of and the “biodistribution, Liver (MEAN)” value [8] was 39.13 % of injected dose per gram of. The “biodistribution, Lungs (MEAN)” value [8] was 3.30 % of injected dose per gram of, the “biodistribution, Muscle (MEAN)” value [8] was 0.27 % of injected dose per gram of and the “biodistribution, Ovary (MEAN)” value [8] was 16.92 % of injected dose per gram of. For the same compound, the “biodistribution, Pancreas (MEAN)” value [8] was 1.00 % of injected dose per gram of, the “biodistribution, Salivary glands (MEAN)” value [8] was 2.14 % of injected dose per gram of and the “biodistribution, Spleen (MEAN)” value [8] was 9.69 % of injected dose per gram of. For the same compound, the “biodistribution, Uterus (MEAN)” value [8] was 4.99 % of injected dose per gram of, the “biodistribution, Adrenal glands (MEAN)” value [9] was 29.30 % of injected dose per gram of and the “biodistribution, Brain (MEAN)” value [9] was 0.07 % of injected dose per gram of. The “biodistribution, Fat (MEAN)” value [9] was 0.99 % of injected dose per gram of, the “biodistribution, Heart (MEAN)” value [9] was 2.19 % of injected dose per gram of and the “biodistribution, Intestine (MEAN)” value [9] was 2.80 % of injected dose per gram of. The “biodistribution, Kidneys (MEAN)” value [9] was 1.44 % of injected dose per gram of, the “biodistribution, Liver (MEAN)” value [9] was 32.70 % of injected dose per gram of and the “biodistribution, Lungs (MEAN)” value [9] was 1.70 % of injected dose per gram of. For the same compound, the “biodistribution, Muscle (MEAN)” value [9] was 0.37 % of injected dose per gram of, the “biodistribution, Ovary (MEAN)” value [9] was 20.61 % of injected dose per gram of and the “biodistribution, Pancreas (MEAN)” value [9] was 0.79 % of injected dose per gram of. For the same compound, the “biodistribution, Salivary glands (MEAN)” value [9] was 2.01 % of injected dose per gram of, the “biodistribution, Spleen (MEAN)” value [9] was 10.71 % of injected dose per gram of and the “biodistribution, Uterus (MEAN)” value [9] was 4.86 % of injected dose per gram of.
